Results from patent US20230310428A1, “EGFR INHIBITOR AND PREPARATION METHOD AND USE THEREOF” (HONGYUN BIOTECH CO., LTD., priority 2020, published 2023).
Read-outs that look alike come from different tables or passages of the source.

Experiments:
Assay in all cases: Growth inhibitory activity of compounds on BaF3 cell lines stably transfected with kinase (MTS, 48 h)
Type in all cases: cell-based
[1] = target: T1, various mutants of kinase EGFR (BaF3 cell lines stably transfected with kinase) (Homo sapiens, UniProt P00533)
T1 construct: other: BaF3 cells stably transfected with EGFR Δ19Del; MTS, 48 h; other: BaF3 cell line stably transfected with EGFR Δ19Del
T1 sequence (P00533 with tags, fused parts or gaps DEL746-750): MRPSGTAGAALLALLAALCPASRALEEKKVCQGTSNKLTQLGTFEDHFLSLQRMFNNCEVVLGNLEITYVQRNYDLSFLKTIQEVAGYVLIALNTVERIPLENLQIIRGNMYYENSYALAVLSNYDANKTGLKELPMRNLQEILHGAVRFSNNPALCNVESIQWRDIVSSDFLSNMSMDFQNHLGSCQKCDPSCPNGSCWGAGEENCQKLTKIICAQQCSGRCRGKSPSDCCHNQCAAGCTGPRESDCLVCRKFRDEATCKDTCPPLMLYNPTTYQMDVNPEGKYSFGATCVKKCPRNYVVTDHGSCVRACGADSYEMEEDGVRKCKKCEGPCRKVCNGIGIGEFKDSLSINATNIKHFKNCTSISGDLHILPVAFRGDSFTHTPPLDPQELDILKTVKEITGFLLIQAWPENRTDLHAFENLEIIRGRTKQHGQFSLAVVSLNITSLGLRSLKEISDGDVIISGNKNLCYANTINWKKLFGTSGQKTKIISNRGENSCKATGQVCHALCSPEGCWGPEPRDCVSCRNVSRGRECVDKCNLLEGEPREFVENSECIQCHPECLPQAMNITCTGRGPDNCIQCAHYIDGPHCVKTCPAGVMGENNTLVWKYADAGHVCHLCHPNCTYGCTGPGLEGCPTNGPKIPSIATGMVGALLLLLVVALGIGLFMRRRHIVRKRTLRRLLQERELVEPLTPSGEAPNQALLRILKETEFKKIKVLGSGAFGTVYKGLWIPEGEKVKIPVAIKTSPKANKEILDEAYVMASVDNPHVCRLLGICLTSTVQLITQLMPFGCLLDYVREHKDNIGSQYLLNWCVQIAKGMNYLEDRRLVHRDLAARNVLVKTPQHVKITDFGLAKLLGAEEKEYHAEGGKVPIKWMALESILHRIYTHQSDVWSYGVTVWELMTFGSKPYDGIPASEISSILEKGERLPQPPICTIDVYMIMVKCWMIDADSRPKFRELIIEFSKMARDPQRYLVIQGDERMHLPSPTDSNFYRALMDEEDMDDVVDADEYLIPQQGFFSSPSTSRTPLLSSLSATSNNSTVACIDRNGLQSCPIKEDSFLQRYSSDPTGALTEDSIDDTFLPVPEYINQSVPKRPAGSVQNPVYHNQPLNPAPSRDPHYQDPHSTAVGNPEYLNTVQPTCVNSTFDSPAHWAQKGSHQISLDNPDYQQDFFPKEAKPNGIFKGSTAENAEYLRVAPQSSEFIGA
Procedure, shortened: (§1)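 Growth is measured by MTS reduction (OD 490 nm) after 48 h compound exposure at up to 10 µM in 8 steps of 1/3. Inhibition is calculated against a 0.1% DMSO control and cell-free blank, and IC50 is derived from it.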

[2] = target: T2, various mutants of kinase EGFR (BaF3 cell lines stably transfected with kinase) (Homo sapiens, UniProt P00533, T790M/C797S, form not given)
T2 construct: other: BaF3 cells stably transfected with EGFR Δ19Del/T790M/C797S; MTS, 48; other: BaF3 cell line stably transfected with EGFR Δ19Del/T790M/C7
T2 sequence (P00533 with tags, fused parts or gaps DEL746-750/T790M/C797S, form open): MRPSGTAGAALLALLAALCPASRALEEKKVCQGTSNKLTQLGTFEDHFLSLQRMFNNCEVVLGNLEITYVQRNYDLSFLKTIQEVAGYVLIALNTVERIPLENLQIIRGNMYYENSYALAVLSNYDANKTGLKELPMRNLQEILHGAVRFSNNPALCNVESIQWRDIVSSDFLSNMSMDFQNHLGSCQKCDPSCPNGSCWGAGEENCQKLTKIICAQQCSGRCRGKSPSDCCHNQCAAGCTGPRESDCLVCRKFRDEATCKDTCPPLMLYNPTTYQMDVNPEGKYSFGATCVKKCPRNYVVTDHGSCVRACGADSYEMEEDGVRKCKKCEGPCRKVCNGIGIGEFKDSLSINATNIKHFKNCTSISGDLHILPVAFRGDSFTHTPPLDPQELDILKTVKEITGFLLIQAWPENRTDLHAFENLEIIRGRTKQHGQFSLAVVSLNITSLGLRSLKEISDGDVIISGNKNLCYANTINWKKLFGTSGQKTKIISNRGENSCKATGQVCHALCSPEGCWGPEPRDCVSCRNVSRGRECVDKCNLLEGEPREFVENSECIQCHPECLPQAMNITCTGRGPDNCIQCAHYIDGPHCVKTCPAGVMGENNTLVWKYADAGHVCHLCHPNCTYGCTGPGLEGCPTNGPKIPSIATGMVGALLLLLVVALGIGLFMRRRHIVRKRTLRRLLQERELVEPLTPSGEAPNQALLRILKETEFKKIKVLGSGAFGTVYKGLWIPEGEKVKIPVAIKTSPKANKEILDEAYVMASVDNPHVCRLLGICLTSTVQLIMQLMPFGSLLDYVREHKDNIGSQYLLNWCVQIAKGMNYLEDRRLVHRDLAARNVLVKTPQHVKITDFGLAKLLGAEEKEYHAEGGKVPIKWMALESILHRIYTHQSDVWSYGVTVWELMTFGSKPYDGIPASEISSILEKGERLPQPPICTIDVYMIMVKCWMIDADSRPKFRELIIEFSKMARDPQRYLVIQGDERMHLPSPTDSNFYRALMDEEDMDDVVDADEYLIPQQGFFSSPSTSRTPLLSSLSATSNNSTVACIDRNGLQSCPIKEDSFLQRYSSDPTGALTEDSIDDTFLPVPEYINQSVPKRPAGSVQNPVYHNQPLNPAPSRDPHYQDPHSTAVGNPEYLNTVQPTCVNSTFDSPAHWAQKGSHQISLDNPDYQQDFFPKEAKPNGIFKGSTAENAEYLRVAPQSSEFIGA
Procedure, shortened: as §1

[3] = target: T3, various mutants of kinase EGFR (BaF3 cell lines stably transfected with kinase) (Homo sapiens, UniProt P00533, T790M, form not given)
T3 construct: other: BaF3 cells stably transfected with EGFR Δ19Del/T790M; MTS, 48 h; other: BaF3 cell line stably transfected with EGFR Δ19Del/T790M; MTS, 48
T3 sequence (P00533 with tags, fused parts or gaps DEL746-750/T790M, form open): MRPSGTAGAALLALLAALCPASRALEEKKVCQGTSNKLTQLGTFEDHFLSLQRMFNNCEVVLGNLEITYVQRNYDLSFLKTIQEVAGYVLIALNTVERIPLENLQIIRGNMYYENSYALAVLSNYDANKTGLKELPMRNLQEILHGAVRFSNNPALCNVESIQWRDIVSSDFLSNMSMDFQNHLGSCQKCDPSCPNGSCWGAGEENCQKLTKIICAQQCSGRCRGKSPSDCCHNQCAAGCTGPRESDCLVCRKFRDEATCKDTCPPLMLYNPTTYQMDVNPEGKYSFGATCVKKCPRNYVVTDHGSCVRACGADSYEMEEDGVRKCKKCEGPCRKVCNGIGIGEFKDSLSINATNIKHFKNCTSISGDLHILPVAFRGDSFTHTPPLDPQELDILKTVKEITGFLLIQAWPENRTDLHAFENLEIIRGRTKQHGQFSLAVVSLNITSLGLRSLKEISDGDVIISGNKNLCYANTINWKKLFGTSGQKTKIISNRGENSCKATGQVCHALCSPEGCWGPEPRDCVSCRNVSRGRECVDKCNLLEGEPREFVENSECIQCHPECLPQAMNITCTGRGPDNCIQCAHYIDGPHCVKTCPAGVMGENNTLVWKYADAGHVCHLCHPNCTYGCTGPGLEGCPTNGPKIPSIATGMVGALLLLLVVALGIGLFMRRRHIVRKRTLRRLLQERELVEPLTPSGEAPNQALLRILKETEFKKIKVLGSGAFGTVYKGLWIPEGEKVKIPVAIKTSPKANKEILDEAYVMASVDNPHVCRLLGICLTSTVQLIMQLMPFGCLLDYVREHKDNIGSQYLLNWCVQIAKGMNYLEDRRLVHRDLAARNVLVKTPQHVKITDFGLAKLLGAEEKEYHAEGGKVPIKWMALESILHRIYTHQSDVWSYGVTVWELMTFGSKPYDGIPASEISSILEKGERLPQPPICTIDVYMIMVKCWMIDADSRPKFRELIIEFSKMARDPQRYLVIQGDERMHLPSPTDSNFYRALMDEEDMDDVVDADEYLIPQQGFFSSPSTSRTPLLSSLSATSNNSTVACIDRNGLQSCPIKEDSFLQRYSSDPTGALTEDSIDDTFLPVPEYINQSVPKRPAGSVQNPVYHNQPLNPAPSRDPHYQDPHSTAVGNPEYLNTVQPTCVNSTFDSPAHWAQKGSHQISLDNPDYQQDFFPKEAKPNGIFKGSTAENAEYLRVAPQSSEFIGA
Procedure, shortened: as §1

[4] = target: T4, various mutants of kinase EGFR (BaF3 cell lines stably transfected with kinase) (Homo sapiens, UniProt P00533, L858R)
T4 construct: expressed in transfected cells; host or cells: BaF3
T4 sequence (P00533 25-1210 L858R): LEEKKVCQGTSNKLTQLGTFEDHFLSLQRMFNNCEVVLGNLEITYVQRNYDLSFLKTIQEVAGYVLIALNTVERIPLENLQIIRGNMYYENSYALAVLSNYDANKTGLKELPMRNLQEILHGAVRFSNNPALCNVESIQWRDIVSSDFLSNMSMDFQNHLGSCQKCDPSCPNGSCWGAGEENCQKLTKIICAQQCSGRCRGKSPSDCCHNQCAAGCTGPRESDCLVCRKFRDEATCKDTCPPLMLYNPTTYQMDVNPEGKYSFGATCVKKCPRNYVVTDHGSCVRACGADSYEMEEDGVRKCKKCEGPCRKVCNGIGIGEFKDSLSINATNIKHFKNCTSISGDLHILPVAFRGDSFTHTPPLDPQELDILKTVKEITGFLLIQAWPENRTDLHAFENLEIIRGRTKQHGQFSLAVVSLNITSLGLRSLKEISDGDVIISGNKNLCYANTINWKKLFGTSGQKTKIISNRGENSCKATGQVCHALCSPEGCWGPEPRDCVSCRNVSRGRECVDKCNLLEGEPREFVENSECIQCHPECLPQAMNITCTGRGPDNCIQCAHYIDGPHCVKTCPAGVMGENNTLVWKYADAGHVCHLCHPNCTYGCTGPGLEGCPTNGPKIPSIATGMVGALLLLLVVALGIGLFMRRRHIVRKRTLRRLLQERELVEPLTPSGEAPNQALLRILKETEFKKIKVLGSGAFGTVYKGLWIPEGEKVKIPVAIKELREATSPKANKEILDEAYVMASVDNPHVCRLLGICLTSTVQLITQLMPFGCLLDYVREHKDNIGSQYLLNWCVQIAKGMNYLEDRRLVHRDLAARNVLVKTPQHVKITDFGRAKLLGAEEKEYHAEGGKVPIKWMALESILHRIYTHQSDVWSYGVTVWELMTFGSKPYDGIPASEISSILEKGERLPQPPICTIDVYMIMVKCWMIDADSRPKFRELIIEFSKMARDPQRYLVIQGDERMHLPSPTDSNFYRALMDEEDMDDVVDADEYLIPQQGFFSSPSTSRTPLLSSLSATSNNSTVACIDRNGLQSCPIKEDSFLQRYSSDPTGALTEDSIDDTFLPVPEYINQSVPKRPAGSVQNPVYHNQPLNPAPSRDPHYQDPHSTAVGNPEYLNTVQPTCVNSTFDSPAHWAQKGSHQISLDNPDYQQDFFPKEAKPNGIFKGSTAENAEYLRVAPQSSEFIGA
Procedure, shortened: as §1

[5] = target: T5, various mutants of kinase EGFR (BaF3 cell lines stably transfected with kinase) (Homo sapiens, UniProt P00533, C797S/L858R/T790M)
T5 construct: expressed in transfected cells; host or cells: BaF3
Procedure, shortened: as §1

[6] = target: T6, various mutants of kinase EGFR (BaF3 cell lines stably transfected with kinase) (Homo sapiens, UniProt P00533, L858R/T790M)
T6 construct: expressed in transfected cells; host or cells: BaF3
Procedure, shortened: as §1

[7] = BaF3 cell line stably transfected with EGFR Δ19Del, read-out: Δ19Del growth inhibitory activity IC50
[8] = BaF3 cell line stably transfected with EGFR Δ19Del/T790M/C797S, read-out: Δ19Del/T790M/ C797S growth inhibitory activity IC50
[9] = BaF3 cell line stably transfected with EGFR Δ19Del/T790M, read-out: Δ19Del/ T790M growth inhibitory activity IC50
[10] = BaF3 cell line stably transfected with EGFR L858R, read-out: L858R growth inhibitory activity IC50
[11] = BaF3 cell line stably transfected with EGFR L858R/T790M/C797S, read-out: L858R/T790M/ C797S growth inhibitory activity IC50
[12] = BaF3 cell line stably transfected with EGFR L858R/T790M, read-out: L858R/ T790M growth inhibitory activity IC50
[13] = BaF3 cells stably transfected with EGFR Δ19Del, read-out: IC50, growth inhibition, Δ19Del
[14] = BaF3 cells stably transfected with EGFR Δ19Del/T790M/C797S, read-out: IC50, growth inhibition, Δ19Del/T790M/C797S
[15] = BaF3 cells stably transfected with EGFR Δ19Del/T790M, read-out: IC50, growth inhibition, Δ19Del/T790M
[16] = BaF3 cells stably transfected with EGFR L858R, read-out: IC50, growth inhibition, L858R
[17] = BaF3 cells stably transfected with EGFR L858R/T790M/C797S, read-out: IC50, growth inhibition, L858R/T790M/C797S
[18] = BaF3 cells stably transfected with EGFR L858R/T790M, read-out: IC50, growth inhibition, L858R/T790M

SMILES	IC50 [1, 7] [nM]	IC50 [2, 8] [nM]	IC50 [3, 9] [nM]	IC50 [4, 10] [nM]	IC50 [5, 11] [nM]	IC50 [6, 12] [nM]	IC50 [1, 13] [nM]	IC50 [2, 14] [nM]	IC50 [3, 15] [nM]	IC50 [4, 16] [nM]	IC50 [5, 17] [nM]	IC50 [6, 18] [nM]
CCc1cc(Nc2ncc(OC)c(Nc3ccc4nccnc4c3N(C)S(C)(=O)=O)n2)c(OC)nc1N1CCC(N2CCN(C)CC2)CC1 [Compound I-334]	≤ 50	≤ 50	≤ 50	≤ 50	≤ 50	≤ 50	–	–	–	–	–	–
CCc1cc(Nc2nc(Nc3ccc4nccnc4c3N(C)S(C)(=O)=O)c3sccc3n2)c(OC(F)(F)F)cc1N1CCC(N2CCN(C)CC2)CC1 [II-1-8]	500 to 2500	50 to 500	50 to 500	500 to 2500	50 to 500	50 to 500	–	–	–	–	–	–
CCc1cc(Nc2ncc(Cl)c(Nc3ccc4nccnc4c3N(C)S(=O)(=O)C(C)C)n2)c(OC)cc1N1CCN(C)CC1 [Compound I-255]	–	–	–	–	–	–	50 to 500	≤ 50	≤ 50	50 to 500	50 to 500	50 to 500
CCc1cc(Nc2ncc(C(F)(F)F)c(Nc3ccc4nccnc4c3N(C)S(C)(=O)=O)n2)c(OC)cc1N1CCN(C)CC1 [Compound I-208]	–	–	–	–	–	–	50 to 500	≤ 50	≤ 50	≤ 50	≤ 50	≤ 50
COc1cc(N2CCC(N3CCN(C)CC3)CC2)c(CC2CC2)cc1Nc1ncc(C(F)(F)F)c(Nc2ccc3nccnc3c2N(C)S(C)(=O)=O)n1 [Compound I-203]	–	–	–	–	–	–	50 to 500	≤ 50	≤ 50	50 to 500	50 to 500	≤ 50
CCc1cc(Nc2ncc(Br)c(Nc3ccc4nccnc4c3N(C)S(C)(=O)=O)n2)c(OC)cc1N1CCC2(CC1)CC(N(C)C)C2 [Compound I-399]	50 to 500	≤ 50	50 to 500	50 to 500	≤ 50	50 to 500	–	–	–	–	–	–
CN(c1c(Nc2nc(Nc3ccn(C)n3)ncc2Br)ccc2nccnc12)S(C)(=O)=O [Compound I-66]	–	–	–	–	–	–	50 to 500	50 to 500	50 to 500	50 to 500	50 to 500	≤ 50
CCc1cc(Nc2ncc(CC)c(Nc3ccc4nccnc4c3N(C)S(C)(=O)=O)n2)c(OC)cc1N1CCN(C)CC1 [Compound I-322]	≤ 50	≤ 50	≤ 50	≤ 50	≤ 50	≤ 50	–	–	–	–	–	–

Second part, the compound after the results:

IC50 [1, 7] [nM]	IC50 [2, 8] [nM]	IC50 [3, 9] [nM]	IC50 [4, 10] [nM]	IC50 [5, 11] [nM]	IC50 [6, 12] [nM]	IC50 [1, 13] [nM]	IC50 [2, 14] [nM]	IC50 [3, 15] [nM]	IC50 [4, 16] [nM]	IC50 [5, 17] [nM]	IC50 [6, 18] [nM]	SMILES
≤ 50	≤ 50	≤ 50	≤ 50	≤ 50	≤ 50	–	–	–	–	–	–	COc1cc(N2CCC(N3CCN(C)CC3)CC2)c(C)cc1Nc1ncc(OC)c(Nc2ccc3nccnc3c2N(C)S(C)(=O)=O)n1 [Compound I-332]
≤ 50	50 to 500	≤ 50	50 to 500	50 to 500	50 to 500	–	–	–	–	–	–	CCOc1cnc(Nc2cc(CC)c(N3CCC(N4CCN(C)CC4)CC3)cc2OC)nc1Nc1ccc2nccnc2c1N(C)S(C)(=O)=O [Compound I-337]
–	–	–	–	–	–	50 to 500	50 to 500	50 to 500	50 to 500	≤ 50	50 to 500	Cc1cc2c(cc1Nc1ncc(Br)c(Nc3ccc4nccnc4c3N(C)S(C)(=O)=O)n1)CN(C)CC2 [Compound I-92]
500 to 2500	500 to 2500	500 to 2500	500 to 2500	500 to 2500	500 to 2500	–	–	–	–	–	–	COc1nc(N2CCC(N3CCN(C)CC3)CC2)ccc1Nc1nc(Nc2ccc3nccnc3c2N(C)S(C)(=O)=O)c2sccc2n1 [II-1-4]
–	–	–	–	–	–	≤ 50	50 to 500	≤ 50	≤ 50	50 to 500	≤ 50	COc1cc(N2CCC(N(C)C)CC2)c(C)cc1Nc1ncc(Cl)c(Nc2ccc3nccnc3c2N(C2CC2)S(C)(=O)=O)n1 [Compound I-243]
–	–	–	–	–	–	50 to 500	≤ 50	≤ 50	50 to 500	≤ 50	≤ 50	COc1cc(N2CCC(O)CC2)ccc1Nc1ncc(Br)c(Nc2ccc3nccnc3c2N(C)S(C)(=O)=O)n1 [Compound I-44]
